In assay [1] the target is MCT1 (Homo sapiens (Human), UniProt P53985). The assay is described as follows: Assay 4: MCT1-mediated lactate transport in BT20 breast cancer cells. The format is cell-based. Particulars: Table 27. The procedure:
(§1) 10 μL of a 30 mM DMSO stock of BCECF-AM ester (Life Technologies) is added and the cells are incubated at 37° C. for 5 min. The cells are pelleted (300 g, 5 min), washed once with 1 mL Tyrode's Solution, pH 7.4, re-pelleted (300 g, 5 min), and resuspended in 1 mL Tyrode's Solution, pH 7.4.
Assay 4: MCT1-Mediated Lactate Transport in BT20 Breast Cancer Cells.
Preparation of BCECF loaded cells are as described for Assay 1. Lactate transport assay is as described for Assay 1, except 10 mM L-lactate (rather than 50 mM) is added.

In assay [2] the target is MCT4 (Homo sapiens (Human), UniProt O15427). Put plainly: Assay 3: MCT4-mediated lactate transport in MDA-MB-231 breast cancer cells. The assay is classed as cell-based. Conditions: MDA-MB-231 cells; lactate transport. The protocol: as §1
MCT4 activity may be assessed by monitoring the intracellular pH change that accompanies lactate/proton symport, using the pH-sensitive fluorescent dye 2′,7′-bis-(carboxyethyl)-5(6)-carboxyfluorescein (BCECF), in a manner similar to that previously reported for MCT1 and MCT4. The following is an exemplary procedure for assaying MCT4 activity of the compounds of Formula (I).

31 compounds from US10214492B2, “Heterocyclic inhibitors of MCT4” (Vettore, LLC, priority 2016, dated 2019) can be followed below.

Usually IC50 stands for the concentration that inhibits the measured activity by half. A lower IC50 goes with greater potency in that assay.

Sequence of MCT4 (O15427 whole entry, looked up): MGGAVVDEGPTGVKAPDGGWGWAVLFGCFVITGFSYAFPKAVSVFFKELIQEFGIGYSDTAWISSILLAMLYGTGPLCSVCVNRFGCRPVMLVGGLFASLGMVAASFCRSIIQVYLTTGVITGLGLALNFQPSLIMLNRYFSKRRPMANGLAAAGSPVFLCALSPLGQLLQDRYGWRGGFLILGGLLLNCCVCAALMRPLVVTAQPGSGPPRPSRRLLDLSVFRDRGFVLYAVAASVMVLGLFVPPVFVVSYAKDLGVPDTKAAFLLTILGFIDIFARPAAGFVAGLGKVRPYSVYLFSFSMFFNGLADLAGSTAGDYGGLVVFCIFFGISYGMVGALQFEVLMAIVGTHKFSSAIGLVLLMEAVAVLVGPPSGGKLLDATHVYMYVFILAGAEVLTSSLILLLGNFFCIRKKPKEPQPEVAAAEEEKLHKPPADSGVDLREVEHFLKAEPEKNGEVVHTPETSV
Sequence of MCT4 (P35613 whole entry partner, looked up): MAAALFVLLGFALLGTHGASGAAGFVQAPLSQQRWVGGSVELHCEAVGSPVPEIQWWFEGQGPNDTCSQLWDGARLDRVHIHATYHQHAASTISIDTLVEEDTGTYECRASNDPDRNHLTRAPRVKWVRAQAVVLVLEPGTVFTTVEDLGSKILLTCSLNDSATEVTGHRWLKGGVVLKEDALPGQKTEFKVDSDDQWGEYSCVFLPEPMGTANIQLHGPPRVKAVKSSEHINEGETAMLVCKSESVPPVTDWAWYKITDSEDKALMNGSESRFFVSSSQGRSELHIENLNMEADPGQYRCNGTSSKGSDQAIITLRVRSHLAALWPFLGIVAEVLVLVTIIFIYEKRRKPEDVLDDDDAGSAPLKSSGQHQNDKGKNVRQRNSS
Sequence of MCT1 (P53985 whole entry): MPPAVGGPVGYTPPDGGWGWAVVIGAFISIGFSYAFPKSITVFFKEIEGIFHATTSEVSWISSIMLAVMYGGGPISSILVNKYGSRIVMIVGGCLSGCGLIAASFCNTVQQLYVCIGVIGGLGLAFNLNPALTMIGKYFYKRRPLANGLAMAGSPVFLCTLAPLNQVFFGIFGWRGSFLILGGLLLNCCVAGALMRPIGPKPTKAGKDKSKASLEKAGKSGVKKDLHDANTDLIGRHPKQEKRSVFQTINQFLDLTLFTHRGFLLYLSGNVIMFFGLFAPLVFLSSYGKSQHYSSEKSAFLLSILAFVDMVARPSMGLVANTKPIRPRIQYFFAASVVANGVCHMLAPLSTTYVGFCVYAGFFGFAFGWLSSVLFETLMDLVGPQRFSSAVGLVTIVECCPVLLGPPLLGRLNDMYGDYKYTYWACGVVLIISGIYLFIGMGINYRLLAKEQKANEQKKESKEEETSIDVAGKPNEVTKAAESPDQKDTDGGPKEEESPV
Sequence of MCT1 (P35613 140-385 partner): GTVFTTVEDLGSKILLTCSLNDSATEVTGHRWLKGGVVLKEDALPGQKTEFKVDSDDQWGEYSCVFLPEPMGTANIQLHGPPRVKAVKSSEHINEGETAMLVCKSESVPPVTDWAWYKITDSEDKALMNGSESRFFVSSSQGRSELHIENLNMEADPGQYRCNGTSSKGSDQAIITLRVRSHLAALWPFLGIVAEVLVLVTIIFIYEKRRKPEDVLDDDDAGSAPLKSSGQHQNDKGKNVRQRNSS

For “2-((1-[(2-Chlorophenyl)methyl]-5-(4-cyclopropoxythien-2-yl)-1H-pyrazol-3-yl(methoxy)-2-methylpropanoic acid [Example 130]”, the half-inhibitory concentration (IC50) is 55 nM in assay [1] and 98 nM in assay [2]. In the same order, the values of `CC(C)COc1cccc(-c2cc(COC(C)(C)C(=O)O)nn2-c2ccccc2Cl)c1` [Example 101, 2-([1-(2-Chlorophenyl)-5-[3-(2-methyl-propoxy)phenyl]-1H-pyrazol-3-yl)methoxy)-2-methylpropanoic acid] are 12000 nM and 3.4 nM.

Turning to `COc1ccccc1-n1nc(COC(C)(C)C(=O)O)cc1-c1cccc(OCC(C)C)c1` [Example 102, 2-([1-(2-Methoxyphenyl)-5-[3-(2-methylpropoxy)phenyl]-1H-pyrazol-3-yl]methoxy)-2-methylpropanoic acid], the figures for the IC50 in assay [1] and in assay [2] were 42000 nM and 15 nM, respectively. In the same order, the values of `CC(C)COc1cccc(-c2cc(COC(C)(C)C(=O)O)nn2-c2ccccc2N(C)C)c1` [Example 103, 2-([1-[2-(Dimethylamino)phenyl]-5-[3-(2-methylpropoxy)phenyl]-1H-pyrazol-3-yl]methoxy)-2-methylpropanoic acid] are 28000 nM and 2.6 nM.

As for `CC(C)COc1cccc(-c2cc(COC(C)(C)C(=O)O)nn2-c2ccccc2)c1` [Example 104, 2-methyl-2-([5-[3-(2-methylpropoxy)phenyl]-1-phenyl-1H-pyrazol-3-yl]methoxy)propanoic acid], the figures for the IC50 in assay [1] and in assay [2] were 12000 nM and 20 nM, respectively.

On to `Cc1ccccc1-n1nc(COC(C)(C)C(=O)O)cc1-c1cccc(OCC(C)C)c1` [Example 105, 2-Methyl-2-([1-(2-methylphenyl)-5-[3-(2-methylpropoxy)phenyl]-1H-pyrazol-3-yl]methoxy]propanoic acid], for which the values for the 50% inhibitory concentration (IC50) in assay [1] and in assay [2] were 15000 nM and 7.6 nM, respectively. On the same counts, the results for `CC(C)COc1cccc(-c2cc(COC(C)(C)C(=O)O)nn2-c2ccccc2F)c1` [Example 106, 2-([1-(2-fluorophenyl)-5-[3-(2-methyl-propoxy)phenyl]-1H-pyrazol-3-yl)methoxy)-2-methylpropanoic acid] are 21000 nM and 12 nM.

Consider `CC(C)COc1cccc(-c2cc(COC(C)(C)C(=O)O)nn2Cc2ccc(N(C)C)cc2)c1` [Example 107, 2-[(1-[[4-(Dimethylamino)phenyl]methyl]-5-[3-(2-methylpropoxy)phenyl]-1H-pyrazol-3-yl)methoxy)-2-methylpropanoic acid], for which the IC50 in assay [1] is 9900 nM; in assay [2], 170 nM. In the same order, the values of `CC(C)COc1cccc(-c2cc(COC(C)(C)C(=O)O)nn2Cc2cccc(N(C)C)c2)c1` [Example 108, 2-[(1-[[3-(Dimethylamino)phenyl]-methyl]-5-[3-(2-methylpropoxy)phenyl]-1H-pyrazol-3-yl)methoxy)-2-methylpropanoic acid] are 5200 nM and 36 nM. On the same counts, the results for `CC(C)COc1cccc(-c2cc(COC(C)(C)C(=O)O)nn2Cc2ccccc2N(C)C)c1` [Example 109, 2-[(1-[[2-(Dimethylamino)phenyl]-methyl]-5-[3-(2-methylpropoxy)phenyl]-1H-pyrazol-3-yl)methoxy)-2-methylpropanoic acid] are > 11000 nM and 2.1 nM. In the same order, the values of `COc1ccccc1Cn1nc(COC(C)(C)C(=O)O)cc1-c1cccc(OC2CC2)c1` [Example 111, 2-([5-(3-Cyclopropoxyphenyl)-1-[(2-methoxyphenyl)methyl]-1H-pyrazol-3-yl)methoxy)-2-methylpropanoic acid] are 32000 nM and 7.9 nM.

Consider `COc1ccccc1-n1nc(COC(C)(C)C(=O)O)cc1-c1cccc(OC2CC2)c1` [Example 112, 2-([5-(3-cyclopropoxyphenyl)-1-(2-methoxyphenyl)-1H-pyrazol-3-yl]methoxy)-2-methylpropanoic acid], for which the IC50 in assay [1] came to 94000 nM; in assay [2] it was 29 nM. With `COc1ccccc1-n1nc(COC(C)(C)C(=O)O)cc1-c1cccc(OC(C)C)c1` [Example 113, 2-([1-(2-Methoxyphenyl)-5-[3-(propan-2-yloxy)phenyl]-1H-pyrazol-3-yl]methoxy)-2-methylpropanoic acid], the IC50 in assay [1] stood at 33000 nM; in assay [2], 6.7 nM. In the same order, the values of `CN(C)c1ccccc1-n1nc(COC(C)(C)C(=O)O)cc1-c1cccc(OC2CC2)c1` [Example 114, 2-([5-(3-cyclopropoxyphenyl)-1-[2-(dimethylamino)phenyl]-1H-pyrazol-3-yl]methoxy)-2-methylpropanoic acid] are 73000 nM and 4.3 nM.

Regarding `COc1cccc(-c2cc(COC(C)(C)C(=O)O)nn2-c2cccnc2)c1` [Example 115, 2-([5-(3-Methoxyphenyl)-1-(pyridin-3-yl)-1H-pyrazol-3-yl]methoxy)-2-methylpropanoic acid], the IC50 in assay [1] is > 100000 nM. The same measure, in the same setting: next, `COc1cccc(-c2cc(COC(C)(C)C(=O)O)nn2-c2ccccc2F)c1` [Example 117, 2-([1-(2-Fluorophenyl)-5-(3-methoxyphenyl)-1H-pyrazol-3-yl]methoxy)-2-methylpropanoic acid]: > 100000 nM. The same measure, in the same setting: next, `COc1cccc(-c2cc(COC(C)(C)C(=O)O)nn2-c2ccccc2C)c1` [Example 118, 2-([5-(3-methoxyphenyl)-1-(2-methylphenyl)-1H-pyrazol-3-yl]methoxy)-2-methylpropanoic acid]: 50000 nM.

`COc1cccc(-c2cc(COC(C)(C)C(=O)O)nn2-c2ccccc2OC)c1` [Example 119, 22-([1-(2-Methoxyphenyl)-5-(3-methoxyphenyl)-1H-pyrazol-3-yl]methoxy)-2-methylpropanoic acid] had an IC50 in assay [1] of 65000 nM. This IC50 and that of the compound before are within 1.5-fold of each other. Take `CC[C@H](OCc1cc(-c2cccc(OC)c2)n(Cc2ccccc2Cl)n1)C(=O)O` [Example 122, (2S)-2-([1-[(2-Chlorophenyl)methyl]-5-(3-methoxyphenyl)-1H-pyrazol-3-yl]methoxy)-butanoic acid]: the IC50 in assay [1] was 2500 nM; in assay [2], 50 nM.

With `CC[C@@H](OCc1cc(-c2cccc(OC)c2)n(Cc2ccccc2Cl)n1)C(=O)O` [Example 123], the figures for the IC50 in assay [1] and in assay [2] were 11000 nM and 1500 nM, respectively. In the same order, the values of `COc1cccc(-c2cc(CO[C@@H](C)C(=O)O)nn2Cc2ccccc2Cl)c1` [Example 124, (2S)-2-([1-[(2-Chlorophenyl)methyl]-5-(3-methoxyphenyl)-1H-pyrazol-3-yl]methoxy)-propanoic acid] are 31000 nM and 420 nM. In assay [2], `COc1cccc(-c2cc(CO[C@H](C)C(=O)O)nn2Cc2ccccc2Cl)c1` [Example 125, (2R)-2-([1-[(2-Chlorophenyl)methyl]-5-(3-methoxyphenyl)-1H-pyrazol-3-yl]methoxy)-propanoic acid] displayed an IC50 of 5900 nM. For the compound `COc1ccccc1-c1cc(COC(C)(C)C(=O)O)nn1Cc1ccccc1Cl` [Example 126], the IC50 is 35000 nM in assay [1] and 130 nM in assay [2]. In the same order, the values of `COc1ccc(-c2cc(COC(C)(C)C(=O)O)nn2Cc2ccccc2Cl)cc1` [Example 127, 2-([1-[(2-Chlorophenyl)methyl]-5-(4-methoxyphenyl)-1H-pyrazol-3-yl]methoxy)-2-methylpropanoic acid] are 15000 nM and 41 nM.

`CC(C)COc1ccc(-c2cc(COC(C)(C)C(=O)O)nn2Cc2ccccc2Cl)s1` [Example 128, 2-([1-[(2-Chlorophenyl)methyl]-5-[5-(2-methylpropoxy)thien-2-yl]-1H-pyrazol-3-yl]methoxy)-2-methylpropanoic acid]: the values for the IC50 in assay [1] and in assay [2] were > 11000 nM and 1.2 nM, respectively. On the same counts, the results for `CC(C)Oc1ccc(-c2cc(COC(C)(C)C(=O)O)nn2Cc2ccccc2Cl)s1` [Example 129, 2-([1-[(2-Chlorophenyl)methyl]-5-[5-(propan-2-yloxy)thien-2-yl]-1H-pyrazol-3-yl]methoxy)-2-methylpropanoic acid] are 16000 nM and 2.8 nM.

Turning to `COc1cccc(-c2cc(COC(C)(C)C(=O)O)nn2Cc2c(F)cccc2N(C)C)c1` [Example 136, 2-[(1-[(2-(Dimethylamino)-6-fluoro-phenyl]methyl]-5-(3-methoxyphenyl)-1H-pyrazol-3-yl)methoxy)-2-methylpropanoic acid], the IC50 in assay [1] is > 33000 nM. Same read-out and setting: next, `COc1cc(OC)cc(-c2cc(COC(C)(C)C(=O)O)nn2-c2cccc(Cl)c2)c1` [Example 241, 2-([5-(3,5-Dimethoxyphenyl)-1-(3-chlorophenyl)-1H-pyrazol-3-yl]methoxy)-2-methylpropanoic acid]: 8500 nM; `COc1cc(OC)cc(-c2cc(COC(C)(C)C(=O)O)nn2-c2cccc(OC)c2)c1` [Example 242, 2-([5-(3,5-Dimethoxyphenyl)-1-(3-methoxyphenyl)-1H-pyrazol-3-yl]methoxy)-2-methylpropanoic acid]: 57000 nM; `Cn1cnc2ccc(-c3cc(COC(C)(C)C(=O)O)nn3Cc3ccccc3Cl)cc21` [Example 248, 2-([1-[(2-Chlorophenyl)methyl]-5-(1-methyl-1H-1,3-benzodiazol-6-yl)-1H-pyrazol-3-yl]methoxy)-2-methylpropanoic acid]: > 100000 nM. Still for that read-out and setting: next, `Cc1nn(C)c2c(-n3nc(COC(C)(C)C(=O)O)cc3-c3cccc(OCC(C)(C)C)c3)cccc12` [Example 255]: 7300 nM.
